Like-named read-outs stand apart in the source and are kept apart here.
Key:
[1] = target: T1, RORγ ligand binding domain (LBD) (Homo sapiens, UniProt P51449); experiment: TR-FRET Activity Assay (ligand sensing, RORγ-LBD / coactivator peptide interaction, LANCE); assay type: biochemical
T1 construct: made in house; host or cells: E. coli BL-21 (BL3), vector pDEST15
T1 sequence (P51449 269-508 limits assumed): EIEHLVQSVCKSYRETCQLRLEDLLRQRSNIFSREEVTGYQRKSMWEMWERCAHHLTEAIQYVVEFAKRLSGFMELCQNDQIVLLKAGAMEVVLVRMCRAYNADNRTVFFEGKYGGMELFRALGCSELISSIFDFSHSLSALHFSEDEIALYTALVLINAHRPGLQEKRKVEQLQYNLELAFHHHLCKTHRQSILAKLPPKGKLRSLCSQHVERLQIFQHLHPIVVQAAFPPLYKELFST

[2] = target: T2, RORγ (UniProt P51449); experiment: RORγ Gal4 Reporter Gene Assay in 293T cells (firefly and renilla luciferase); assay type: cell-based, human
T2 sequence (P51449 1-518): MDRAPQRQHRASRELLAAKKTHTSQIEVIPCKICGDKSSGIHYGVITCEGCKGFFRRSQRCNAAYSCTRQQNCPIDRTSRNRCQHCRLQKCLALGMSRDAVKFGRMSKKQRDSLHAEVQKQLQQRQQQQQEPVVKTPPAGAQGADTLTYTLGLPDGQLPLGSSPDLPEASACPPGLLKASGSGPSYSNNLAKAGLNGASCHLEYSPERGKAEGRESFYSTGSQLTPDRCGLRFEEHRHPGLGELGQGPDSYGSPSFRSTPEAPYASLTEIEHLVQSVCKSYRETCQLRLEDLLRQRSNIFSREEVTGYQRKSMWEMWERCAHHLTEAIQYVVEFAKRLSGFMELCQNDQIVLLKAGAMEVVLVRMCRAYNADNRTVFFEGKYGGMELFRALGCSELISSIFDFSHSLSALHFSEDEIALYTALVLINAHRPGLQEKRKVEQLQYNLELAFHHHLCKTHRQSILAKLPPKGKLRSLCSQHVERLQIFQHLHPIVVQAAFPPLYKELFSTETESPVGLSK

[3] = first value of the cell FRET/FF/REN, TR-FRET activity assay, read-out: pIC50 (FRET) (converted)
[4] = second value of the cell, Gal4 reporter gene assay in 293T cells, firefly luciferase
[5] = third value of the cell, Gal4 reporter gene assay in 293T cells, renilla normalised luciferase

Compound | IC50 [1, 3] [nM] | pIC50 (FF) [2, 4] | pIC50 (REN) [2, 5] | IC50 [1] [nM] | pIC50 (FF) [2] | pIC50 (REN) [2]
Cc1c(C(=O)NCC(N)=O)cc(-c2cc(C(C)(C)C)cc(C(C)(C)C)c2)n1CC1CCCCC1 [1/5] | 1000 | 6.3 | 6.2 |  |  | 
Cc1c(C(=O)NCCN2CCOCC2)cc(-c2cc(C(C)(C)O)cc(C3(C)CC3)c2)n1CC1CCCCC1 [17/316] | 2510 | 6.3 | 6.3 |  |  | 
Cc1c(C(=O)NC2COC2)cc(-c2cc(C(C)(C)C)c3c(c2)C(C)(C)CC(=O)N3C)n1CC1CCCCC1 [1/19] | 1000 | 7.0 | 7.1 |  |  | 
Cc1c(C(=O)N[C@H]2C[C@H](C(=O)O)C2)cc(-c2ccc(S(=O)(=O)NC(C)(C)C)c3ccccc23)n1CC1CCCCC1 [17/240] | 794 | 7.5 | 7.6 |  |  | 
Cc1c(C(=O)NCC(C)(C)c2noc(=O)[nH]2)cc(-c2cc(C(C)(C)C)cc(C3(C)CC3)c2)n1CC1CCCCC1 [17/162] | 794 | 7.5 | 7.7 |  |  | 
Cc1c(S(=O)(=O)NC(C)(C)C)ccc(-c2cc(C(=O)NC3CCOCC3)c(C)n2CC2CCCCC2)c1Cl [17/274] | 251 | 7.9 | 7.9 |  |  | 
Cc1c(C(=O)N2CCC(C)(C(=O)O)CC2)cc(-c2cc(C(C)(C)C)c3c(c2)C2(CCO3)CC2)n1CC1CCCCC1 [17/54] | 1580 | 7.1 | 7.2 |  |  | 
CC(C)(C)NS(=O)(=O)c1ccc(-c2c(Cl)c(C(=O)NC3CCOCC3)c(Cl)n2CC2CCCCC2)c2ccccc12 [Example 23, 5-(4-(N-(tert-Butyl)sulfamoyl)naphthalen-1-yl)-2,4-dichloro-1-(cyclohexylmethyl)-N-(tetrahydro-2H-pyran-4-yl)-1H-pyrrole-3-carboxamide] |  |  |  | 200 | 6.7/8.5/8.5 | 6.7/8.5/8.5
Cc1c(C(=O)NC2CCOCC2)cc(-c2cc(NCC(C)(C)C)nc(C(F)(F)F)c2)n1CC1CCCCC1 [17/159] | 1580 | 6.8 | 6.9 |  |  | 
CC(=O)NC(C)(C)CNC(=O)c1cc(-c2cc(C(C)(C)C)c3c(c2)C2(CCO3)CC2)n(CC2CCCCC2)c1C [17/28] | 251 | 7.4 | 7.4 |  |  | 
Cc1c(C(=O)NC2COC2)cc(-c2cc(C(=O)N3CCCCC3)c3ccccn23)n1CC1CCCCC1 [Example 10/1] | 15800 | 6.7 | 6.6 |  |  | 
Cc1c(C(=O)NC2CCOCC2)cc(-c2ccc(S(=O)(=O)NC(C)(C)C)c(OCC(C)(C)C)c2)n1CC1CCCCC1 [17/165] |  |  |  | 5010 | 5.3/6.5/6.9 | 5.3/6.5/6.9
Cc1c(C(=O)NC2COC2)cc(-c2cc(C(=O)NC(C)(C)C)cc(C(C)(C)C)c2)n1CC1CCCCC1 [15/5] |  |  |  | 794 | 6.1/7.6/7.7 | 6.1/7.6/7.7
Cc1c(C(=O)NCC(C)(C)C(N)=O)cc(-c2ccc(S(=O)(=O)NC(C)(C)C)c(C(F)(F)F)c2)n1CC1CCCCC1 [17/202] | 316 | 7.7 | 7.7 |  |  | 
Cc1c(C(=O)NCCC(C)(C)C(=O)O)cc(-c2ccc(S(=O)(=O)NC(C)(C)C)c(C(F)F)c2)n1CC1CCCCC1 [17/130] | 251 | 7.5 | 7.6 |  |  | 
Cc1c(C(=O)N[C@H]2CCOC2)cc(-c2cc(C(C)(C)C)c3c(c2)C2(CCO3)CC2)n1CC1CCCCC1 [1/95] | 158 | 7.0 | 7.1 |  |  | 
CCN(C(C)(C)C)S(=O)(=O)c1ccc(-c2cc(C(=O)NC3COC3)c(C)n2CC2CCCCC2)cc1C(C)(C)C [9/6] | 251 | 7.7 | 7.8 |  |  | 

Compound | IC50 [1, 3] [nM] | pIC50 (FF) [2, 4] | pIC50 (REN) [2, 5] | IC50 [1] [nM] | pIC50 (FF) [2] | pIC50 (REN) [2]
Cc1c(C(=O)NC2CCOCC2)cc(-c2cc(S(=O)(=O)N3CCCCC3)c3ccccn23)n1CC1CCCCC1 [17/96] | 3160 | 6.9 | 7.0 |  |  | 
Cc1c(C(=O)N[C@H]2C[C@H](C(=O)O)C2)cc(-c2cc(C(F)(F)F)c3c(c2)C(C)(C)C(=O)N3C)n1CC1CCCCC1 [17/149] | 1260 | 6.6 | 6.6 |  |  | 
Cc1c(C(=O)N2CC(CC(=O)O)C2)cc(-c2ccc(S(=O)(=O)NC(C)(C)C)c(C(F)(F)F)c2)n1CC1CCCCC1 [17/179] | 398 | 6.1 | 6.1 |  |  | 
Cc1c(C(=O)NC2COC2)cc(-c2cc(C(C)(C)C)c3c(c2)C2(CCO3)CC2)n1CC1CCCCC1 [1/38] | 251 | 7.2 | 7.3 |  |  | 
Cc1c(C(=O)NC2CCOCC2)cc(-c2ccc(S(=O)(=O)NC(C)(C)C)c3cccnc23)n1CC1CCCCC1 [17/282] | 2000 | 6.6 | 6.7 |  |  | 
Cc1c(C(=O)NCCC(C)(C)C(=O)O)cc(-c2ccc(S(=O)(=O)NC(C)(C)C)c(OC(F)F)c2)n1CC1CCCCC1 [17/167] | 794 | 6.6 | 6.8 |  |  | 
Cc1c(C(=O)NC23CCC(C(=O)O)(CC2)CC3)cc(-c2ccc(S(=O)(=O)NC(C)(C)C)c(C(F)(F)F)c2)n1CC1CCCCC1 [17/182] |  |  |  | 501 | 6.3/7.8/7.9 | 6.3/7.8/7.9
Cc1c(C(=O)NC2(C#N)CC2)cc(-c2cc(C(C)(C)C)cc(C(C)(C)C)c2)n1CC1CCCCC1 [1/12] | 1260 | 6.4 | 6.5 |  |  | 
CCC(C)(C)NS(=O)(=O)c1ccc(-c2cc(C(=O)NC3COC3)c(C)n2CC2CCCCC2)cc1C(C)(C)C [9/7] | 501 | 7.5 | 7.5 |  |  | 
CCC(C)(C)NS(=O)(=O)c1ccc(-c2cc(C(=O)N[C@H]3C[C@H](C(=O)O)C3)c(C)n2CC2CCCCC2)c(Cl)c1C [17/197] | 794 | 7.9 | 7.7 |  |  | 
Cc1c(C(=O)NCC2COCCN2C)cc(-c2cc(C(C)(C)C)c3c(c2)C2(CCO3)CC2)n1CC1CCCCC1 (stereo not drawn) [17/14] | 1260 | 5.9 | 5.7 |  |  | 
Cc1c(C(=O)NC2CCOCC2)cc(-c2ccc(S(=O)(=O)NC(C)(C)C)c(C(F)(F)F)c2)n1CC1CCCC(C(F)(F)F)C1 (stereo not drawn) [17/87] |  |  |  | 501 | 6.3/6.9/6.9 | 6.3/6.9/6.9
Cc1c(C(=O)NC2COC2)cc(-c2cc(OCC(C)(C)C)nc(C(C)(C)C)c2)n1CC1CCCCC1 [1/120] |  |  |  | 126 | 6.9/7.1/7.3 | 6.9/7.1/7.3
Cc1c(C(=O)NC2COC2)cc(-c2cc(C(C)(C)C)c3c(c2)C(C)(C)CC(=O)N3)n1CC1CCCCC1 [1/18] | 631 | 7.1 | 7.0 |  |  | 
Cc1c(C(=O)NCCS(C)(=O)=O)cc(-c2cc(C(C)(C)O)cc(C3(C)CC3)c2)n1CC1CCCCC1 [17/317] | 2510 | 6.5 | 6.5 |  |  | 
Cc1c(C(=O)NC2COC2)cc(-c2cc(C3(C)CC3)cc(C3(C)CC3)c2)n1CC1CCCCC1 [1/80] | 200 | 7.5 | 7.5 |  |  | 
Cc1c(C(=O)NCC(C)(C)O)cc(-c2cc(C(C)(C)C)nc3ccccc23)n1CC1CCCCC1 [17/366] | 5010 | 6.6 | 6.3 |  |  | 

Source: patent publication US9815851B2, “Pyrrolo carboxamides as modulators of orphan nuclear receptor RAR-related orphan receptor-gamma (RORγ, NR1F3) activity and for the treatment of chronic inflammatory and autoimmune diseases” (PHENEX PHARMACEUTICALS AG, priority 2011, dated 2017)
